Assay results: article PMC3912631, “Bench to Bed Evidences for Pharmacokinetic and Pharmacodynamic Interactions Involving Oseltamivir and Chinese Medicine” (Evidence-based Complementary and Alternative Medicine : eCAM, 2014)
Like-named read-outs stand apart in the source and are kept apart here.

How the values were obtained:
[1] = cited from earlier work
influenza virus strains = system: influenza virus strains; set-up: method as in PMID 20215135; details: read-out: inhibitory concentrations (IC50) against influenza virus strains; cited from earlier work
H3N2 = system: H3N2; set-up: method as in PMID 20215135; details: read-out: inhibitory concentrations (IC50) against H3N2; cited from earlier work
[2] = Rat in situ intestinal perfusion model, effect of CMF1 on absorption of OA; assay type: in vivo; details: CMF1 6.8 mg/mL vs OA alone (Figure 2)
Method: In view of the consistent effect of CMF1 on OA and OC, further confirmation was performed using rat in situ intestinal perfusion model as described previously. Perfusion concentrations were set at 6.8 mg/mL for CMF1. The flow rate of perfusate applied to the intestinal lumen was set at 0.3 mL/min. Samples obtained from the mesenteric vein were collected into the preweighted 2 mL centrifuge tubes (each containing 30 μL of 10 mg/mL saline solution of dichlorvos) at every 5 min. All collected samples were weighted and centrifuged at 13,000 rpm for 4 min immediately. The plasma samples were stored at −80°C refrigerator until further treated by SPE and analyzed by LC/MS/MS assay as described above.

[3] = Human crossover pharmacokinetic interaction study of WM (Tamiflu) alone or with CMF1; assay type: in vivo, human (Chinese male healthy volunteers); details: human; for half-life: read-out: T 1/2 (terminal half-life) (converted); for Tmax: read-out: T max
Method: Normal healthy Chinese male subjects aged 20–45 years were recruited in this study. […] The study was conducted using a single-center, randomized, open-labeled, multiple dose (5 days), two-treatment, two-period, two-sequence crossover design. […] Each subject underwent two treatment sessions (periods I and II), and each session consists of 5-day treatment (twice daily for day 1 to day 4, morning dose for day 5). The two treatment sessions were separated by a washout period of 2 weeks. 250 mL water was used for WM (Tamiflu capsule, 75 mg per dose) administration. […] Drinking water was not allowed from 1 h predose to 1 h postdose except that needed for drug dosing. […] All blood and urine collection was taken on day 5 of each treatment session. […] Blood samples were collected from a catheter, which was placed in the forearm vein before dosing. At the specified time, 5 mL of blood was drawn (except for 0 time and at 2 h which was 10 mL each for additional antiviral activity determination) and stored in vacuette lithium heparin tubes (Greiner Bio-One). […] Plasma samples were collected after centrifugation and then stored at −80°C until assay. Urine was also collected (and the volume was recorded) at pre-dose, 0–4, 4–8, and 8–12 h intervals. […] After mixing and centrifugation, the supernatant was loaded in prewashed Oasis MCX cartridge (1 cc, 30 mg, Waters) and the cartridge was rinsed subsequently with 1% formic acid, water, and methanol followed by vacuum dried for 20 min. The analytes were then eluted with 1 mL of 1% ammonia in methanol. The eluting solvent was dried by a vacuum concentrator and the residue was reconstituted with 200 μL of 0.1% formic acid : methanol (1 : 1 v/v) prior to HPLC/MS/MS analysis using an ABI 2000 Q-Trap triple quadrupole mass spectrometer (Applied Biosystems) coupled with PE-200 series micropumps and autosampler (Perkin-Elmer). […] In human study, trough concentration (C trough) was defined as the minimum concentration obtained and was obtained at 12 h post-dose. […] In human studies, the comparison of WM + CMF1 to WM alone treatments was evaluated using a 90% confidence intervals (90% CI) approach (USFDA guideline, Drug Interactions Studies, September 2006). […] The statistical model included terms describing the effects attributable to sequence, subject (nested in sequence), period, and treatment (formulation). […] Difference in the median T max between both treatments was evaluated using Wilcoxon signed-rank test. For comparison of the human antiviral activities, one-way analysis of variance in conjunction with post hoc Turkey's range test was performed.

[4] = geometric mean ratio of (WM + CMF1)/WM
[5] = male, in vivo, 75 mg, day 5, WM alone, n = 14, arithmetic mean ± SD
[6] = male, in vivo, day 5, WM + CMF1, n = 14, arithmetic mean ± SD

Which results are given for `CCC(CC)O[C@@H]1C=C(C(=O)O)C[C@H](N)[C@H]1NC(C)=O` [OC, oseltamivir carboxylate]?
effect of food on bioavailability [1]: no significant effect; maximum plasma oseltamivir carboxylate concentration ([1]; following 50 mg doses): about 230 μg/L; absolute oral bioavailability of OC from orally administered OA ([1]; oral OA): 80%; half-life ([1]; oral OA): 6 to 10 h; IC50 (influenza virus strains): 0.01 to 69.2 nM; IC50 (H3N2): 0.2 to 0.6 nM; accumulated amount in rat mesenteric blood in presence of CMF1 [2]: decreased without statistical significance; lowering of 12 h cumulative amount excreted in urine by co-administration of CMF1 [3]: ~ 14%; 12 h Cum. amt. in urine, geometric mean ([3]; WM + CMF1, n = 14): 61224.10 µg; 12 h Cum. amt. in urine, geometric mean ([3]; WM alone, n = 14): 71215.61 µg; time to reach peak maximum in plasma ([3]; approximate value): 4 to 5 h; 12 h Cum. amt. in urine ([3]; day 5, WM + CMF1, n = 14, arithmetic mean ± SD): 62087 ± 10741 µg; 12 h Cum. amt. in urine ([3]; day 5, WM alone, n = 14, arithmetic mean ± SD): 72851 ± 15312 µg; GM Ratio of 12 h Cum. amt. in urine [3, 4]: 85.97%; GM Ratio of AUC0–12 h [3, 4]: 91.32%; GM Ratio of C max [3, 4]: 91.32%; concentration of OC in plasma relative to the respective OA ([3]; oral WM): ~ 10 fold; AUC(0-t) ([3]; male, in vivo, 75 mg, WM alone, n = 14, read-out: AUC0–12 h, geometric mean): 4450 ng·h/mL; Cmax ([3]; male, in vivo, 75 mg, WM alone, n = 14, read-out: C max, geometric mean): 526 ng/mL; CL renal ([3]; male, in vivo, 75 mg, approximate value, read-out: renal clearance (converted)): ~267 mL/min; concentration at 12 h ([3]; male, in vivo, 75 mg, day 5, WM alone (Tamiflu 75 mg bid), n = 14, arithmetic mean ± SD, read-out: C trough (plasma concentration at 12 h postdose)): 207 ± 67.7 ng/mL; AUC(0-t) ([3]; male, in vivo, 75 mg, day 5, WM alone, n = 14, arithmetic mean ± SD, read-out: AUC0–12 h): 4580 ± 1160 ng·h/mL; Cmax ([3]; male, in vivo, 75 mg, day 5, WM alone, n = 14, arithmetic mean ± SD, read-out: C max): 536 ± 102 ng/mL; CL renal ([3]; male, in vivo, 75 mg, day 5, WM alone, n = 14, arithmetic mean ± SD, read-out: Renal clearance (converted)): 272 mL/min; AUC(0-t) ([3]; male, in vivo, WM + CMF1, n = 14, read-out: AUC0–12 h, geometric mean): 4070 ng·h/mL; Cmax ([3]; male, in vivo, WM + CMF1, n = 14, read-out: C max, geometric mean): 481 ng/mL; concentration at 12 h ([3]; male, in vivo, both WM and WM + CMF1 treatments, approximate value, read-out: mean C trough): ~200 ng/mL; concentration at 12 h ([3]; male, in vivo, both WM and WM + CMF1 treatments, read-out: mean C trough, molar equivalent): ~704 nM; concentration at 2 h ([3]; male, in vivo, both treatments (WM and WM + CMF1), read-out: 2 h post-dose plasma concentration): 410 to 436 ng/mL; concentration at 12 h ([3]; male, in vivo, day 5, WM + CMF1 (10 g per dose), n = 14, arithmetic mean ± SD, read-out: C trough (plasma concentration at 12 h postdose)): 195 ± 51.2 ng/mL; AUC(0-t) ([3]; male, in vivo, day 5, WM + CMF1, n = 14, arithmetic mean ± SD, read-out: AUC0–12 h): 4140 ± 783 ng·h/mL; Cmax ([3]; male, in vivo, day 5, WM + CMF1, n = 14, arithmetic mean ± SD, read-out: C max): 487 ± 82.7 ng/mL; CL renal ([3]; male, in vivo, day 5, WM + CMF1, n = 14, arithmetic mean ± SD, read-out: Renal clearance (converted)): 257 mL/min; half-life [3, 5]: 5.16 ± 1.27 h; Tmax [3, 5]: 4.21 ± 0.97 h; half-life [3, 6]: 5.7 ± 1.35 h; Tmax [3, 6]: 3.5 ± 0.94 h
